In patent US8802104B2, “Parathyroid hormone receptor activation and stem and progenitor cell expansion” (The General Hospital Corporation, priority 2002, dated 2014):

Key:
[1] = tested on: primary murine stromal cell cultures; assay: Alkaline phosphatase staining of primary stromal cell cultures; assay type: cell-based, mouse; settings: after 14 days, PTH vs vehicle, FIG. 5b
Description: LTC-IC assays were performed using wild-type stroma and hematopoietic cells. Rat PTH (1-34) (Bachem, Torrance, Calif.) or vehicle was added to each media change either during stroma establishment and/or during culture maintenance to a final concentration of 10^−7 M. Medium was changed every three days for two weeks or until stromal layers became confluent. For alkaline phosphatase staining, primary mononuclear cells obtained as described above from wild-type and or transgenic littermates were then cultured in 24-well plates at an initial concentration of 5×10^6 cells/ml. At 10 or 14 days after seeding, medium was suctioned off, and the adherent cells were gently rinsed twice in PBS. After fixation in 10% Neutral Formalin Buffer for 30 minutes at room temperature, alkaline phosphatase activity was determined histochemically by incubation for 45 minutes at RT with a mixture of 0.1 mg/ml naphthol AS-MX phosphate (Sigma), 0.5% N,N-dimethylformamide, 0.6 mg/ml red violet LB salt (Sigma) in 0.1 M Tris-HCl (pH 8.5). Alkaline phosphatase positive cells were counted at day 10 of culture, when the cultures were subconfluent and individual cells could be identified. For inhibition of γ-secretase activity, 30 μM of γ-secretase inhibitor II (Calbiochem) dissolved in DMSO was added to the long-term culture medium and LTC-IC assays were performed as described. […]

[2] = tested on: lin-Sca-1+c-Kit+ cells in bone marrow; assay: In vivo PTH administration: flow cytometry of lin-Sca-1+c-Kit+ cells; design: species or system C57Bl/6 mice; settings: four weeks PTH; P<0.01, FIG. 5d
From the text: Bone marrow mononuclear cells were isolated as described above. Single cell suspensions were then stained with biotinylated lineage antibodies (CD3, CD4, CD8, Ter119, Gr-1, Mac-1 and B220) and phycoerythrin conjugated anti-Sca-1 and anti-c-Kit (Pharmingen, San Diego, Calif.). Cells were then labeled with a secondary fluorescein isothiocyanante conjugated streptavidin and analyzed on a FACScalibur cytometer (Becton Dickinson and Co., Franklin Lakes, N.J.) using Cell Quest software. […]
For PTH administration, 6-8 week old wild type C57/B male mice were used. […] At the end of the treatment period, ionized serum calcium was measured by the Ciba/Corning 634 Ca^++/pH analyzer, and, after euthanasia, the hind limbs and forelimbs were dissected and utilized for cytologic and histologic analysis.
As treatment of stromal cells with PTH led to an increase in the ability of the stromal cell population to support hematopoietic stem cells, it was investigated whether these effects could be recapitulated in vivo. Wild-type C57Bl/6 mice were injected daily with PTH using an intermittent dosing schedule known to increase osteoblasts, and the frequencies of LTC-ICs in the bone marrow were measured. […]

[3] = tested on: HSC pool in the bone marrow; assay: HSC pool in bone marrow following chemotherapy (competitive transplant); assay type: in vivo, C57Bl/6 mice
Description: Wild-type C57Bl/6 mice were treated with 5 mg of cyclophosphamide (Day 1). The day following injection of cyclophosphamide, mice received no treatment or were treated for 8 days with G-CSF (5 μg/day), 11 days with PTH (80 μg/kg/day) or a combination of G-CSF plus PTH. Mice that received a combination of both G-CSF and PTH received G-CSF treatment for 8 days and PTH treatment for 11 days. Following this treatment protocol, mice were injected with cyclophosphamide on Day 15 and treated with G-CSF, PTH or G-CSF and PTH as described above. The treatment protocol was then repeated for two subsequent cycles, as outlined in FIG. 7.
At the end of the four-cycle treatment with cyclophosphamide and G-CSF/PTH, the bone marrow was removed from the treated mice and competitive transplants into B6.SJL mice were performed to measure the maintenance of the HSC pool in the bone marrow. This involved mixing 5×10^5 BM cells from the treated C57Bl/6 mice (CD45.2) with 2.5×10^5 BM cells from the B6.SJL mice (CD45.1). These cells were then injected into lethally irradiated B6.SJL mice. Eighteen weeks following injection of the cells, peripheral blood was collected from the mice and the relative contribution of the HSCs from the treated animals was measured by flow cytometry for the CD45.2^+ cells. To assess the ability of the HSCs to be mobilized into the peripheral circulation, one week following treatment mice were mobilized with G-CSF (5 μg/day) for 5 days. Peripheral blood (300 μl) was collected from these mice and mixed with 2.5×10^5 BM cells from a B6.SJL mouse. These cells were injected into a lethally irradiated B6.SJL host. Eighteen weeks following injection of the cells, peripheral blood was collected from the mice and the relative contribution of the HSCs from the treated animals was measured by flow cytometry for the CD45.2^+ cells.

Substance: Rat PTH (1-34)
- alkaline phosphatase positive (osteoblastic) cells [1]: an increase in alkaline positive cells
- lin-Sca-1+c-Kit+ cells compared with mock treated controls [2]: higher frequency and absolute number
- HSC pool in the bone marrow following myelotoxic chemotherapy ([3]; PTH, non-G-CSF treated animals): increased the HSC pool
- HSC pool in the bone marrow following chemotherapy ([3]; concurrent treatment with PTH and G-CSF): retention of the HSC pool
